Laboratory results as given in paper PMC3462657 (Cancer letters, 2012).
Entries after “also recorded” stand apart in the source; their conditions may differ.

Assays:
[1] = test system: DBP-induced lung DNA adducts; assay: Inhibition of DBP-DNA adducts in lung tissue, 32P-postlabeling; format: in vivo, female A/J mice; details: coated implants, DBP-treated mice, 3 weeks
[2] = test system: human lung cancer A549 xenograft; assay: Effect on tumor xenograft
[3] = Tissue curcumin/curcuminoids levels by UPLC-fluorescence; format: in vivo, female A/J mice; details: for concentration at 21 days: female, A/J
[4] = design: species or system mice; details: mouse, in vivo
[5] = In vitro release from polymeric implants; format: in vitro ADME; details: for cumulative release over 3 weeks: 37°C
[6] = implants of the individual curcuminoids, 21 days
[7] = coated implants, PBS + 10% bovine serum

## CC1=C(CO)C(=O)O[C@@H]([C@@H](C)[C@H]2CC[C@H]3[C@@H]4C[C@H]5O[C@]56[C@@H](O)C=CC(=O)[C@]6(C)[C@H]4CC[C@]23C)C1 [withaferin A]
[1]
  effect on DBP-DNA adduct levels in lung: reduction in the DNA adduct levels
[1]; listed as Withaferin A
  effect on DBP-DNA adduct levels in lung: diminished DNA adducts, but it was insignificant
[2]; calculated based on the residual amount in the implants
  total dose administered via the two implants: 2.69 mg
[2]; given via the implants
  effect on A549 xenograft: significantly inhibited
[2]; intraperitoneally 8 mg/kg, alternate days
  inhibition of the tumor: 53%
[2]; intraperitoneally, lower dose 4 mg/kg (same total dose as implants), 4 mg/kg
  effect on tumor: ineffective; also recorded: no reduction
[2]; via implants vs sham
  body weight at the end of the 8-week study: essentially the same body weight
[2]; via implants, two 1.5-cm, 5% load
  reduction in the growth of the tumor (tumor volume): 51%

## curcumin
[3]; mouse, in vivo
  composition of the three curcuminoids in lung tissue: essentially the same compositions
  ratio of the three curcuminoids in the liver: 74:18:8
[4]
  biochemical parameters of kidney function: No significant differences
  effect on body weight: no significant effect
  hematological parameters (white blood cells, red blood cells, hemoglobin): No significant differences
  liver enzymes: No significant differences
  neutrophils, lymphocytes, monocytes, eosinophils, and basophils: no statistical difference

## COc1cc(/C=C/C(=O)CC(=O)/C=C/c2ccc(O)c(OC)c2)ccc1O [curcumin I]
[3]; implants of the individual curcuminoids, 10% load, 21 days
  level in lung: 6.5 ± 1.6 ng/g lung
[3]; [6]
  level in brain: 1.4 ng/g tissue
  level in liver: 5–6 ng/g tissue

## COc1cc(/C=C/C(O)=C/C(=O)/C=C/c2ccc(O)cc2)ccc1O [curcumin II, demethoxycurcumin]
[5]; [7]
  cumulative release over 3 weeks: 41.8%
[3]; mouse, in vivo, level in brain
  concentration at 21 days: 1 ng/g
[3]; mouse, in vivo, level in lung
  concentration at 21 days: 1.4 ± 0.4 ng/g

## O=C(/C=C/c1ccc(O)cc1)CC(=O)/C=C/c1ccc(O)cc1 [curcumin III, bisdemethoxycurcumin]
[5]; [7]
  cumulative release over 3 weeks: 51.4%
[3]; mouse, in vivo, level in brain
  concentration at 21 days: 6.4 ng/g
[3]; mouse, in vivo, level in liver
  concentration at 21 days: 5 to 6 ng/g
[3]; mouse, in vivo, level in lung
  concentration at 21 days: 49.7 ± 1.3 ng/g

## Cc1c(-c2cnccn2)ssc1=S [oltipraz, reference compound]
[1]
  effect on DBP-DNA adduct levels in lung: reduction was statistically significant
  lung DNA adducts: 28±7 adducts/10^9 nucleotides
[5]; coated implants agitated in PBS alone at 37°C
  release in PBS alone: essentially no release
[5]; coated implants, PBS + 10% bovine serum, after 21 days
  cumulative release: about 12%
[5]; coated implants, PBS + 10% bovine serum, after 60 days
  cumulative release: ~27%
[5]; coated implants, PBS + 10% bovine serum, over 60 days / eight weeks
  in vitro release pattern: almost zero-order kinetics
